# Data published in US20150231077A1, “AMINE PASSIVATED NANOPARTICLES FOR CANCER TREATMENT AND IMAGING” (THE CLEVELAND CLINIC FOUNDATION, priority 2014, published 2015).
# “Also recorded” adds a separate entry of the source.
# Assays:
# [1] = Formation and TEM size of amine-passivated Au nanoparticles; assay type: physicochemical; conditions: size of the Au nanoparticle formed with the named amine compound as ligand, same synthesis conditions
# Description: In a typical synthesis of water soluble nanoparticles Au:MTX, 5 μmol of HAuCl4 and 25 μmol of MTX were dispersed with brief sonication in 2 mL methanol in a tri-neck 15 mL flask on ice water (0° C.) bath under Ar purge. After 1 hour of stirring at 700 rpm, 0.5 mL of freshly prepared 0.11 M NaBH4 on ice was added drop-wise at 1200 rpm. After ˜1 hour, stirring speed was reduced to 700 rpm and kept for additional ˜30 minutes.
# The reacted solution was centrifuged at 4° C. at 16,100×g for 15 minutes twice, with the addition of 4:1 (volume) mixture of methanol and water, and ethanol respectively. This set of two step centrifugation was repeated at least 3 times, and then the precipitate was re-dispersed in water to obtain aqueous solutions. The aqueous solution was further purified using 3 k ultra centrifugal filter (Millipore, Billerica, Mass.). […]
# [2] = system: human AML cell line THP-1; experiment: THP-1 growth curves (cell density and viability); assay type: cell-based; conditions: 1, 2 and 5 nM
# Description: In order to evaluate the efficacy of Au:MTX in vitro, a human AML cell line THP-1 and human normal hematopoietic stem/progenitor cells (HSPCs) were used. HSPCs were isolated from umbilical cord blood via a CD34+ magnetic cell sorting (CD34 MicroBead Kit #130-046-702, Miltenyl Biotec, Auburn, Calif.). […] Cell density and viability were measured every 24 hours using the cell viability analyzer. […]
# The inventors characterized Au:MTX as drug delivery vehicles and evaluated in vitro therapeutic effects. Au:MTX was purified via sets of centrifugal precipitations, and the Au-to-MTX molar ratio (drug loading onto Au nanoparticle) was measured by elemental analyses (carbon-hydrogen-nitrogen analysis, or CHN; and inductively coupled plasma mass spectrometry, or ICP-MS). […] Au-to-MTX molar ratio was determined as [Au]:[MTX]=9.8:1, i.e. one nanoparticle on average carried ˜75 MTX molecules (assuming ˜1.44 Å as atomic radius of Au and uniform surface coverage, as illustrated in FIG. 1(c)). […] Drug delivery by Au:MTX was evaluated using a human AML cell line THP-1. […] Au:FOL, with the diameter 2.6±1.1 nm measured by TEM, is structurally similar to Au:MTX and was therefore used as an “Au nanoparticle without active drug” control. […]
# [3] = system: human normal hematopoietic stem/progenitor cells (HSPCs); experiment: Normal HSPC growth curves; assay type: cell-based; conditions: 1, 2 and 5 nM
# Description: In order to evaluate the efficacy of Au:MTX in vitro, a human AML cell line THP-1 and human normal hematopoietic stem/progenitor cells (HSPCs) were used. HSPCs were isolated from umbilical cord blood via a CD34+ magnetic cell sorting (CD34 MicroBead Kit #130-046-702, Miltenyl Biotec, Auburn, Calif.). THP-1 cells were cultured in Roswell Park Memorial Institute 1640 (RPMI, Life Technologies, Carlsbad, Calif.) with 10% fetal bovine serum (FBS, Life Technologies), and HSPCs were cultured in Iscove's Modified Dulbecco's Medium (IMDM, Life Technologies) with 10% FBS and cytokines (10 ng/mL of SCF, TPO, and FLT3; 5 ng/mL of IL-3 and IL-6, PeproTech, Rockey Hill, N.J.), respectively, using 24-well cell culture plates with 0.7 mL of culture media per well (at 37° C. with 5% CO2 and >95% humidity). Cell viability was confirmed to be >95% using cell viability analyzer (Vi-Cell, Beckman Coulter, Brea, Calif.) immediately before the experiments. Then the cells were treated with phosphate buffer saline (PBS, Life Technologies), MTX, aqueous solutions of equimolar Au:MTX, and/or equimolar Au:FOL (folic acid-passivated Au nanoparticles). Cell cultures were split two-fold after 72 hours by replenishing each well with fresh media. Cell density and viability were measured every 24 hours using the cell viability analyzer. […]
SMILES,nanoparticle (formation of monolayer-protected Au nanoparticles) [1],THP-1 cell growth [2],HSPC growth [3]
"Cc1cc2nc3c(=O)[nH]c(=O)nc-3n(C[C@H](O)[C@H](O)[C@H](O)COP(=O)(O)OP(=O)(O)OC[C@H]3O[C@@H](n4cnc5c(N)ncnc54)[C@H](O)[C@@H]3O)c2cc1C [flavin adenine dinucleotide (FAD), flavin adenine dinucleotide]",4.2 ± 1.6 nm,,
Nc1ccn([C@@H]2O[C@H](COP(=O)(O)OP(=O)(O)OP(=O)(O)O)[C@@H](O)[C@H]2O)c(=O)n1 [cytidine triphosphate],2.6 ± 0.9 nm,,
"NCCc1ccc(O)c(O)c1 [dopamine, reference compound]",did not form,,
Nc1ccn([C@H]2C[C@H](O)[C@@H](CO)O2)c(=O)n1 [deoxycytidine],did not form,,
Nc1nc2ncc(CNc3ccc(C(=O)N[C@@H](CCC(=O)O)C(=O)O)cc3)nc2c(=O)[nH]1 [folic acid],2.6 ± 1.1 nm,,
Nc1nc2c(ncn2[C@@H]2O[C@H](COP(=O)(O)OP(=O)(O)O)[C@@H](O)[C@H]2O)c(=O)[nH]1 [guanosine diphosphate],2.4 ± 1.0 nm,,
Cc1ncc(C[n+]2csc(CCO)c2C)c(N)n1 [thiamine],did not form,,
COC(=O)CCC(NC(=O)c1ccc(N(C)Cc2cnc3nc(N)nc(N)c3n2)cc1)C(=O)OC (stereo not drawn) [methotrexate dimethyl ester],2.2 ± 0.6 nm,,
CSCC[C@H](N)C(=O)O [methionine],did not form,,
Nc1nc2c(ncn2[C@H]2C[C@H](O)[C@@H](CO)O2)c(=O)[nH]1 [deoxyguanosine],did not form,,
Nc1ccn([C@@H]2O[C@H](COP(=O)(O)O)[C@@H](O)[C@H]2O)c(=O)n1 [cytidine monophosphate],4.5 ± 2.8 nm,,
Nc1ccn([C@@H]2O[C@H](COP(=O)(O)OP(=O)(O)O)[C@@H](O)[C@H]2O)c(=O)n1 [cytidine diphosphate],2.5 ± 0.8 nm,,
Nc1nc2c(ncn2[C@@H]2O[C@H](COP(=O)(O)O)[C@@H](O)[C@H]2O)c(=O)[nH]1 [guanosine monophosphate],2.6 ± 1.0 nm,,
"[H]/N=C(/N)N[C@H]1[C@H](O)[C@@H](O)[C@H](O[C@@H]2O[C@@H](C)[C@](O)(C=O)[C@H]2O[C@@H]2O[C@@H](CO)[C@H](O)[C@@H](O)[C@@H]2NC)[C@@H](N/C(N)=N\[H])[C@@H]1O [streptomycin, reference compound]",2.5 ± 1.2 nm,,
"CN(Cc1cnc2nc(N)nc(N)c2n1)c1ccc(C(=O)N[C@@H](CCC(=O)O)C(=O)O)cc1 [MTX, methotrexate]",2.6 ± 0.7 nm,dose-dependent THP-1 growth suppression,not significantly affected; also recorded: does not significantly affect
"COc1cccc2c1C(=O)c1c(O)c3c(c(O)c1C2=O)C[C@@](O)(C(=O)CO)C[C@@H]3O[C@H]1C[C@H](N)[C@H](O)[C@H](C)O1 [doxorubicin, reference compound]",3.3 ± 1.2 nm,,
Nc1ncnc2c1ncn2[C@@H]1O[C@H](COP(=O)(O)OP(=O)(O)O)[C@@H](O)[C@H]1O [adenosine diphosphate],2.3 ± 0.7 nm,,
Nc1ncnc2c1ncn2[C@@H]1O[C@H](CO)[C@@H](O)[C@H]1O [adenosine],did not form,,
Nc1ncnc2c1ncn2[C@@H]1O[C@H](COP(=O)(O)O)[C@@H](O)[C@H]1O [adenosine monophosphate],did not form,,
Nc1nc2c(ncn2[C@@H]2O[C@H](CO)[C@@H](O)[C@H]2O)c(=O)[nH]1 [guanosine],2.7 ± 1.6 nm,,
Nc1ncnc2c1ncn2[C@@H]1O[C@H](COP(=O)(O)OP(=O)(O)OP(=O)(O)O)[C@@H](O)[C@H]1O [adenosine triphosphate],2.1 ± 0.7 nm,,
Nc1nc2c(ncn2[C@@H]2O[C@H](COP(=O)(O)OP(=O)(O)OP(=O)(O)O)[C@@H](O)[C@H]2O)c(=O)[nH]1 [guanosine triphosphate],2.3 ± 0.7 nm,,
NCCCC[C@H](N)C(=O)O [lysine],did not form,,
Nc1ncnc2c1ncn2[C@H]1C[C@H](O)[C@@H](CO)O1 [deoxyadenosine],did not form,,
Cc1ncc(C[n+]2csc(CCOP(=O)(O)OP(=O)(O)O)c2C)c(N)n1 [thyamine pyrophosphate],3.1 ± 1.3 nm,,
